tested on: sphingomyelinase; test: Effect of metal ions on enzymatic activity; type: biochemical, Streptomyces sp. A 9107; details: additive 1 mM; no addition = 100
Protocol: (§1) After preincubating 0.45 ml of the following reaction mixture at 37° C., 50 μl of an enzyme solution is added to start the reaction. After just 10 minutes, 0.1 ml of 0.1M EDTA is added to stop the reaction.
(§2) The formed phosphorylcholine is led to a color development system through a H2 O2 by using the following reaction mixture, and absorbance at 500 nm is measured.
(§3) The indication of enzymatic activity is calculated from the following equation with activity to produce 1 μmole of phosphorylcholine for 1 minute as one unit:
(§4) wherein ΔA500 nm means a difference in absorbance at 500 nm between at the start of reaction and 10 minutes after the reaction.

Question: Which “Relative activity (%)” value does the source give for `[Ba+2].[Cl-].[Cl-]` [BaCl2] here?
Answer: The value was 89%.

Question: With `[Ca+2].[Cl-].[Cl-]` [CaCl2] as the molecule, how does the “Relative activity (%)” value read?
Answer: Its value is 48%.

Question: With `[Cl-].[Cl-].[Co+2]` [CoCl2] as the molecule, how does the “Relative activity (%)” value read?
Answer: Its value is 35%.

Question: Which “Relative activity (%)” value does the source give for `[Cl][Cu][Cl]` [CuCl2] here?
Answer: The value was 19%.

Question: With `[Cl-].[Cl-].[Mg+2]` [MgCl2] as the molecule, how does the “Relative activity (%)” value read?
Answer: Its value is 232%.

Question: Which “Relative activity (%)” value does the source give for `[Cl][Mn][Cl]` [MnCl2] here?
Answer: Its value is 236%.

Question: Which “Relative activity (%)” value does the source give for `[Cl][Ni][Cl]` [NiCl2] here?
Answer: The value was 12%.

Question: With `[Cl-].[Cl-].[Zn+2]` [ZnCl2] as the molecule, how does the “Relative activity (%)” value read?
Answer: Its value is 3%.

same assay, conditions: additive 100 mM; no addition = 100

Question: For `[Cl-].[K+]` [KCl], which “Relative activity (%)” value is on record?
Answer: Its value is 90%.

Question: Which “Relative activity (%)” value does the source give for `Cl.N` [NH4 Cl] here?
Answer: Its value is 79%.

Question: For `[Cl-].[Na+]` [NaCl], which “Relative activity (%)” value is on record?
Answer: The value was 73%.

tested on: sphingomyelinase; test: Effect of surfactant on enzymatic activity; type: biochemical, Streptomyces sp. A 9107; details: additive 0.1%; no addition = 100
Protocol: as §1, §2, §3, §4

Question: With `C[C@H](CCC(=O)O)[C@H]1CC[C@H]2[C@@H]3CC[C@@H]4C[C@H](O)CC[C@]4(C)[C@H]3C[C@H](O)[C@]12C` [Sodium deoxycholate] as the molecule, how does the “Relative activity (%)” value read?
Answer: The value was 16%.

Question: With `CCCCCCCCCCCCOS(=O)(=O)[O-].[Na+]` [Sodium laurylsulfate] as the molecule, how does the “Relative activity (%)” value read?
Answer: Its value is 13%.

Question: With Sodium laurylbenzenesulfonate as the molecule, how does the “Relative activity (%)” value read?
Answer: The value was 8%.

Question: With Triton X-100 as the molecule, how does the “Relative activity (%)” value read?
Answer: Its value is 358%.

tested on: not listed separately; test: Measurement of enzymatic activity (specific activity of preparations); type: biochemical; details: 1 unit = 1 μmole phosphorylcholine per minute
Protocol: as §1, §2, §3, §4

Question: Which Specific activity does the source give for sphingomyelinase [enzyme] here?
Answer: Its Specific activity is 1,050 U/mg.

tested on: not listed separately; test: Thermal stability (residual activity); type: physicochemical; details: 23 u/ml in 100 mM Tris-HCl buffer (pH 7.0), heated for 10 minutes
Protocol: An enzyme solution is prepared so that its concentration in 100 mM Tris-HCl buffer (pH 7.0) is 23 u/ml, and measured for the residual activity after heated for 10 minutes at every temperatures shown on the abscissa in FIG. 3. The liquor is kept stable until the treatment at 40° C. for 10 minutes.

Question: With sphingomyelinase [enzyme] as the molecule, how does the “Temperature until which kept stable” value read?
Answer: The value was no more than 40 °C.

tested on: not listed separately; test: Isoelectric point by electrophoretic method using ampholite; type: physicochemical; details: not given
Protocol: It is determined by the electrophoretic method using ampholite, a carrier. The pH obtained is 8.6.

Question: For sphingomyelinase [enzyme], which Isoelectric point is on record?
Answer: The Isoelectric point was 8.6 pH.

tested on: sphingomyelinase; test: Substrate specificity; type: biochemical, Streptomyces sp. A 9107; details: as substrate; sphingomyelin = 100
Protocol: as §1, §2, §3, §4
(10) SUBSTRATE SPECIFICITY

Question: With Lecithin as the molecule, how does the “Relative activity (%)” value read?
Answer: The value was 0%.

Question: For Lysolecithin, which “Relative activity (%)” value is on record?
Answer: Its value is 0%.

Question: Which “Relative activity (%)” value does the source give for Phosphatidyl ethanolamine here?
Answer: The value was 0%.

Question: Which “Relative activity (%)” value does the source give for Phosphatidyl inositol here?
Answer: Its value is 0%.

Question: Which “Relative activity (%)” value does the source give for Phosphatidyl serine here?
Answer: The value was 0%.

Question: For Sphingomyelin, which “Relative activity (%)” value is on record?
Answer: The value was 100%.

From patent US4525458A, “Method for the production of sphingomyelinase” (priority 1981, dated 1985)
